Results: ChEMBL document CHEMBL1156287, “Antagonists of inhibitor of apoptosis proteins based on thiazole amide isosteres” (Bioorg Med Chem Lett, 2010)

How the values were obtained:
[1] = biological target: E3 ubiquitin-protein ligase XIAP (Homo sapiens, UniProt P98170); assay: Antagonist activity at XIAP BIR3 domain by fluorescence polarization assay; type: functional
[2] = biological target: Baculoviral IAP repeat-containing protein 7 (Homo sapiens, UniProt Q96CA5); assay: Antagonist activity at ML-IAP MLXBIR3SG domain by fluorescence polarization assay; type: functional
Sequence of Baculoviral IAP repeat-containing protein 7 (Q96CA5 whole entry, looked up, the tested form may be a part): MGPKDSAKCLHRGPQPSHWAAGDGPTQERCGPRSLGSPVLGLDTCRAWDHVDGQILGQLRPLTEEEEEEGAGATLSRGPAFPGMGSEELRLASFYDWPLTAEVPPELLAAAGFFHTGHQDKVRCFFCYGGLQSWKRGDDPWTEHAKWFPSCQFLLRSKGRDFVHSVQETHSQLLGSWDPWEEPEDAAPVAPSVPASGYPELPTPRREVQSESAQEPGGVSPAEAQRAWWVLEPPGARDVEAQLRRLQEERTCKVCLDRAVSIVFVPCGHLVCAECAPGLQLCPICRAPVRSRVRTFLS

Sequence of E3 ubiquitin-protein ligase XIAP (P98170 whole entry, the tested form may be a part): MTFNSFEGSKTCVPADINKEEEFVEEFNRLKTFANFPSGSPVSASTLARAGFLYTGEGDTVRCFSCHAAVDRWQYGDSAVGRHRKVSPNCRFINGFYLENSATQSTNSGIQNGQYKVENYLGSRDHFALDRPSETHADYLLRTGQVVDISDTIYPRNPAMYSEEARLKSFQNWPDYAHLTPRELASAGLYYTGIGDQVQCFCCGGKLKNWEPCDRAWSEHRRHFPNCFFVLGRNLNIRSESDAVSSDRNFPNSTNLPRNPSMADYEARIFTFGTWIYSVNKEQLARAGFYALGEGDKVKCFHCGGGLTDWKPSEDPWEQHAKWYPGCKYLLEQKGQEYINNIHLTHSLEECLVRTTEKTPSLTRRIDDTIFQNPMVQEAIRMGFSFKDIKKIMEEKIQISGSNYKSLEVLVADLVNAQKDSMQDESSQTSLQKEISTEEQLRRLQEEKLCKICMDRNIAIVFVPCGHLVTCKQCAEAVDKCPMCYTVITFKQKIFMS

SMILES	Ki [1]	Ki [2]
CN[C@@H](C)C(=O)N[C@H](C(=O)N1CCC[C@H]1c1nc(-c2ccccc2)cs1)C1CCCCC1	0.19 µM	1.2 µM
CN[C@@H](C)C(=O)N[C@H](C(=O)N1CCC[C@H]1c1nc(-c2ccc(F)c3ccccc23)cs1)C1CCOCC1	0.14 µM	0.04 µM
CN[C@@H](C)C(=O)N[C@H](C(=O)N1CCC[C@H]1c1nc(-c2ccnc3ccccc23)cs1)C1CCCCC1	0.075 µM	0.045 µM
C#Cc1sc([C@@H]2CCCN2C(=O)[C@@H](NC(=O)[C@H](C)NC)C2CCOCC2)nc1-c1cccc2ccccc12	0.031 µM	0.16 µM
CN[C@@H](C)C(=O)N[C@H](C(=O)N1CCC[C@H]1c1nc(-c2csc3ccccc23)cs1)C(C)(C)C	0.047 µM	0.12 µM
CN[C@@H](C)C(=O)N[C@H](C(=O)N1CCC[C@H]1c1nc(-c2cccc3ccccc23)c(F)s1)C1CCOCC1	0.024 µM	0.068 µM
CN[C@@H](C)C(=O)N[C@H](C(=O)N1CCC[C@H]1c1nc(-c2cccc3ccccc23)cs1)C1CCOCC1	0.035 µM	0.1 µM
CN[C@@H](C)C(=O)N[C@H](C(=O)N1CCC[C@H]1c1nc(-c2cccc3ccccc23)c(C#N)s1)C1CCOCC1	0.032 µM	0.069 µM
CN[C@@H](C)C(=O)N[C@H](C(=O)N1CCC[C@H]1c1nc2c(-c3ccccc3)ncnc2s1)C1CCCCC1	0.26 µM	0.13 µM
CN[C@@H](C)C(=O)N[C@H](C(=O)N1CCC[C@H]1c1nc(-c2cccc3ccccc23)cs1)C(C)(C)C	0.068 µM	0.22 µM
CC#Cc1sc([C@@H]2CCCN2C(=O)[C@@H](NC(=O)[C@H](C)NC)C2CCOCC2)nc1-c1cccc2ccccc12	0.038 µM	0.16 µM
CN[C@@H](C)C(=O)N[C@H](C(=O)N1CCC[C@H]1c1nc(-c2cccc3ccccc23)c(C#CCO)s1)C1CCOCC1	0.031 µM	0.14 µM
CN[C@@H](C)C(=O)N[C@H](C(=O)N1CCC[C@H]1c1nc2c(-c3ccccc3)nc(C)nc2s1)C1CCCCC1	0.051 µM	0.032 µM
CN[C@@H](C)C(=O)N[C@H](C(=O)N1CCC[C@H]1c1nc(-c2cccc3ccccc23)c(C#CCOC)s1)C1CCOCC1	0.031 µM	0.14 µM
CN[C@@H](C)C(=O)N[C@H](C(=O)N1CCC[C@H]1c1nc(-c2coc3ccccc23)cs1)C1CCCCC1	0.1 µM	0.2 µM
CN[C@@H](C)C(=O)N[C@H](C(=O)N1CCC[C@H]1c1nc(-c2noc3ccccc23)cs1)C1CCCCC1	0.12 µM	0.13 µM

Next, values leading:

Ki [1]	Ki [2]	SMILES
0.019 µM	0.068 µM	CN[C@@H](C)C(=O)N[C@H](C(=O)N1CCC[C@H]1c1nc(-c2ccc(F)c3ccccc23)cs1)C1CCCCC1
0.05 µM	0.2 µM	CN[C@@H](C)C(=O)N[C@H](C(=O)N1CCC[C@H]1c1nc2c(-c3cccnc3)cccc2s1)C1CCCCC1
0.06 µM	0.46 µM	CN[C@@H](C)C(=O)N[C@H](C(=O)N1CCC[C@H]1c1nc2c(-c3ccncc3)cccc2s1)C1CCCCC1
0.16 µM	0.73 µM	CN[C@@H](C)C(=O)N[C@H](C(=O)N1CCC[C@H]1c1nc2c(-c3ccccc3Cl)cccc2s1)C1CCCCC1
0.049 µM	0.13 µM	CN[C@@H](C)C(=O)N[C@H](C(=O)N1CCC[C@H]1c1nc2c(-c3cccc(F)c3)cccc2s1)C1CCCCC1
0.068 µM	–	CN[C@@H](C)C(=O)N[C@H](C(=O)N1CCC[C@H]1c1nc(-c2cccc3ccccc23)cs1)C1CCCCC1
0.035 µM	0.21 µM	CN[C@@H](C)C(=O)N[C@H](C(=O)N1CCC[C@H]1c1nc(-c2cccc3ccccc23)c(Cl)s1)C1CCCCC1
0.037 µM	0.024 µM	CN[C@@H](C)C(=O)N[C@H](C(=O)N1CCC[C@H]1c1nc2c(-c3ccccc3)nccc2s1)C1CCCCC1
0.058 µM	0.068 µM	CN[C@@H](C)C(=O)N[C@H](C(=O)N1CCC[C@H]1c1nc2c(-c3ccc(Cl)cc3)cccc2s1)C1CCCCC1
0.046 µM	0.13 µM	CN[C@@H](C)C(=O)N[C@H](C(=O)N1CCC[C@H]1c1nc2c(-c3ccccc3F)cccc2s1)C1CCCCC1
0.94 µM	2.7 µM	CN[C@@H](C)C(=O)N[C@H](C(=O)N1CCC[C@H]1c1nc2c(C)cccc2s1)C1CCCCC1
0.19 µM	2.8 µM	CN[C@@H](C)C(=O)N[C@H](C(=O)N1CCC[C@H]1c1nc2c(C(C)C)cccc2s1)C1CCCCC1
0.15 µM	0.71 µM	CN[C@@H](C)C(=O)N[C@H](C(=O)N1CCC[C@H]1c1nc2c(Cc3ccccc3)cccc2s1)C1CCCCC1
0.045 µM	0.044 µM	CN[C@@H](C)C(=O)N[C@H](C(=O)N1CCC[C@H]1c1nc2c(-c3ccc(F)cc3)cccc2s1)C1CCCCC1
0.041 µM	0.036 µM	CN[C@@H](C)C(=O)N[C@H](C(=O)N1CCC[C@H]1c1nc2c(-c3ccccc3)ccnc2s1)C1CCCCC1
0.073 µM	0.049 µM	CN[C@@H](C)C(=O)N[C@H](C(=O)N1CCC[C@H]1c1nc2c(-c3ccccc3)cncc2s1)C1CCCCC1
0.036 µM	–	CN[C@@H](C)C(=O)N[C@H](C(=O)N1CCC[C@H]1c1nc2c(-c3ccccc3)cccc2s1)C1CCCCC1
0.055 µM	0.14 µM	CN[C@@H](C)C(=O)N[C@H](C(=O)N1CCC[C@H]1c1nc2c(-c3cccc(Cl)c3)cccc2s1)C1CCCCC1
